The source of these data is US11773129B2, “Methods of preventing or treating atherosclerosis with inhibitors of specific isoenzymes of human neuraminidase” (THE GOVERNORS OF THE UNIVERSITY OF ALBERTA, priority 2017, dated 2023).

Structures are written as SMILES.

What is called IC50 is the concentration needed to halve the response being measured.

Common to all, as to format: biochemical
Assay [1] deals with NEU1, NEU2, NEU3, NEU4. Description: Isoenzyme specificity/selectivity from 4MU-NANA IC50 across the four human neuraminidases. Conditions: for Target: isoenzyme(s) the compound is specific for, dual (bispecific) when ratio of IC50 is about 3 or less.
In assay [2] the target is T1, NEU4 (Homo sapiens, UniProt Q8WWR8).
T1 sequence (Q8WWR8 1-484): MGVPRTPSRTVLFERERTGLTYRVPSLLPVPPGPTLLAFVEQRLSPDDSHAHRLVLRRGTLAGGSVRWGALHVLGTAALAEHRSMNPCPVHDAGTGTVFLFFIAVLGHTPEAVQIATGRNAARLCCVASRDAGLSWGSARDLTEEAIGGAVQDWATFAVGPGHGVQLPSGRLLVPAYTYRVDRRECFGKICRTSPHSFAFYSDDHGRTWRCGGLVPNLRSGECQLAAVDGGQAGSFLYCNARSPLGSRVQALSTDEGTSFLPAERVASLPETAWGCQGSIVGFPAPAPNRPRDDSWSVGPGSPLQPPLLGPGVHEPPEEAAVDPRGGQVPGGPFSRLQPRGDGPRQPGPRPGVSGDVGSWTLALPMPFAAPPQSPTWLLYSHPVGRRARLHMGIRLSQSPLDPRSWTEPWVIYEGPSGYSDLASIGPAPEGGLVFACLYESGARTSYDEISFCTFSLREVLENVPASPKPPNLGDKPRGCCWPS
The assay is described as follows: IC50 inhibition assay using 4MU-NANA as the substrate, NEU4. Conditions: 4MU-NANA as the substrate; read-out: IC50 NEU4. Further details: GST; made in house; host or cells: E. coli.

For assay [3], the target named is T2, NEU3 (Homo sapiens, UniProt Q9UQ49).
T2 sequence (Q9UQ49 1-428): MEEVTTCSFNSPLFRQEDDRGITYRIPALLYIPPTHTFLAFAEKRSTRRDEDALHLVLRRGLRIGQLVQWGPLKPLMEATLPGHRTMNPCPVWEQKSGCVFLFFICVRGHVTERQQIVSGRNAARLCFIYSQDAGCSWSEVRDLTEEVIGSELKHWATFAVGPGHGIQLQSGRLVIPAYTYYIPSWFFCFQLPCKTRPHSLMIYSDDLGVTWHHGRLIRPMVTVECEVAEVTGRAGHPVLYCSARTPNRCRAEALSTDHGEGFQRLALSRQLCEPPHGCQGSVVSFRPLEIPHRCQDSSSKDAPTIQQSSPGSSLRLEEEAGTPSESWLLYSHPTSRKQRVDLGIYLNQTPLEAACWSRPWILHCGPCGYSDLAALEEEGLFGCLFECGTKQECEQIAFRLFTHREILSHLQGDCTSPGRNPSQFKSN
The assay is described as follows: IC50 inhibition assay using 4MU-NANA as the substrate, NEU3. Particulars: 4MU-NANA as the substrate; read-out: IC50 NEU3. On the set-up: MBP (N); made in house; host or cells: E. coli.

The target in assay [4] is T3, NEU1 (Homo sapiens, UniProt Q99519).
T3 construct: made in house; host or cells: HEK293 (lentiviral transduction), crude lysate
The assay is described as follows: IC50 inhibition assay using 4MU-NANA as the substrate, NEU1. Particulars: 4MU-NANA as the substrate; read-out: IC50 NEU1. How it is done: Two weeks after transduction cells were harvested and a crude lysate showing ˜200 nmol/h mg of sialidase activity used in experiments.
Assays were performed with duplicates for each point and IC50 was obtained by plotting the data with Graphpad™ Prism 5.0.

As to `CC(=O)N[C@@H]1C(O)C=C(C(=O)O)OC1C(O)C(O)CNC(=O)c1ccccc1` (stereo partly drawn) [compound 56, 5-Acetamido-9-benzamido-2,6-anhydro-3,5-dideoxy-D-glycero-D-galacto-non-2-enonic acid], in assay [1], the Target result is “NEU1”. Besides, the concentration for half-maximal inhibition (IC50) in assay [2] amounted to 150 ± 10 µM; in assay [3], 34 ± 5 µM; in assay [4] it was 2.5 ± 0.3 µM.
Regarding `CC(=O)N[C@@H]1C(O)C=C(C(=O)O)OC1C(O)C(O)Cn1cc(-c2ccc(NC(=O)c3ccccc3)cc2)nn1` (stereo partly shown) [compound 27], in assay [1], the Target result is “NEU3/ NEU4”. The values for the half-inhibitory concentration (IC50) in assay [2], in assay [3] and in assay [4] were 3.7 ± 0.4 µM, 2.9 ± 0.2 µM and 190 ± 70 µM, respectively.
For `CC(=O)N[C@H]1[C@H]([C@H](O)[C@H](O)Cn2cc(-c3ccc(N(C)C)cc3)nn2)OC(C(=O)O)=C[C@@H]1O` [7a] the same measures were “NEU3/ NEU4”, 28 ± 3 µM, 9.3 ± 0.8 µM and 190 ± 40 µM.
Take `CC(C)CC(=O)N[C@H]1[C@H]([C@H](O)[C@H](O)CO)OC(C(=O)O)=C[C@@H]1O` [compound 35, 5-(3-methylbutanamido)-2,6-anhydro-3,5-dideoxy-D-glycero-D-galacto-non-2-enonic acid]: the Target entry in assay [1] was “NEU1/ NEU2”. Besides, the IC50 was over 500 µM in assay [2], over 500 µM in assay [3] and 32 ± 5 µM in assay [4].
On to `CC(=O)N[C@@H]1C(NC(=N)N)C=C(C(=O)O)OC1C(O)C(O)Cn1cc(-c2ccc(C(=O)O)cc2)nn1` (stereo partly shown) [8a], for which the Target entry in assay [1] is reported as “NEU3”. For the same compound, the IC50 was 24 ± 2 µM in assay [2], 0.61 ± 0.1 µM in assay [3] and over 500 µM in assay [4].
Consider `O=C(O)C1=C[C@H](O)[C@@H](NC(=O)c2ccccc2)[C@H]([C@H](O)[C@H](O)CO)O1` [compound 39, 5-Benzamido-2,6-anhydro-3,5-dideoxy-D-glycero-D-galacto-non-2-enonic acid], for which the Target entry in assay [1] was “NEU1”. The IC50 in assay [2] was over 500 µM; in assay [3], 480 ± 100 µM; in assay [4], 11 ± 1 µM.
For `O=C(O)C1=C[C@H](O)[C@@H](NC(=O)C2CCC2)[C@H]([C@H](O)[C@H](O)CO)O1` [compound 38, 5-Cyclobutanecarboxamido-2,6-anhydro-3,5-dideoxy-D-glycero-D-galacto-non-2-enonic acid], in that order: “NEU1”, 81 ± 15 µM, 100 ± 20 µM and 12 ± 2 µM.
For the compound `CC(=O)N[C@@H]1C(O)C=C(C(=O)O)OC1C(O)C(O)Cn1cc(CNC(=O)c2ccccc2)nn1` (stereo partly shown) [compound 26], the Target result in assay [1] is listed as “NEU4”. Further, the results for the IC50 in assay [2], in assay [3] and in assay [4] were 1.1 ± 0.2 µM, 15 ± 1 µM and over 500 µM, respectively.
Take `CC(=O)N[C@H]1[C@H]([C@H](O)[C@H](O)Cn2cc(-c3ccc(C)cc3)nn2)OC(C(=O)O)=C[C@@H]1O` [7d]: the Target entry in assay [1] is reported as “NEU3/ NEU4”. Also, the results for the half-inhibitory concentration (IC50) in assay [2], in assay [3] and in assay [4] were 3.9 ± 0.4 µM, 8.2 ± 1.3 µM and 51 ± 7 µM, respectively.
Take `O=C(O)C1=C[C@H](O)[C@@H](NC(=O)C2CC2)[C@H]([C@H](O)[C@H](O)CO)O1` [compound 37, 5-Cyclopropanecarboxamido-2,6-anhydro-3,5-dideoxy-D-glycero-D-galacto-non-2-enonic acid]: in assay [1], the Target entry was “NEU1”. Besides, the half-maximal inhibitory concentration (IC50) in assay [2] worked out at 150 ± 40 µM; in assay [3], 170 ± 40 µM; in assay [4], 6.9 ± 0.4 µM.
Consider `O=C(Cn1cc(-c2ccc(C(F)(F)F)cc2)nn1)N[C@@H]1C(O)C=C(C(=O)O)OC1C(O)C(O)CO` (stereo partly shown) [compound 41], for which the Target entry in assay [1] is reported as “NEU2”. Also, the concentration for half-maximal inhibition (IC50) was 300 ± 60 µM in assay [2], over 500 µM in assay [3] and over 500 µM in assay [4].
`CC(=O)N[C@H]1[C@H]([C@H](O)[C@H](O)Cn2cc(-c3ccc(F)cc3)nn2)OC(C(=O)O)=C[C@@H]1O` [7f] yielded a Selectivity in assay [1] (from 4MU-NANA IC50, for the isoenzyme(s) in column Target) of 10. In assay [1], the Target result is “NEU4”. Moreover, the results for the IC50 in assay [2], in assay [3] and in assay [4] were 1.3 ± 0.2 µM, 17 ± 2 µM and 100 ± 40 µM, respectively.
As for `CCCCC(=O)NCC(O)C(O)C1OC(C(=O)O)=CC(O)[C@H]1NC(=O)CCCC` (stereo partly drawn) [compound 57, 5-Pentanamido-9-pentanamido-2,6-anhydro-3,5-dideoxy-D-glycero-D-galacto-non-2-enonic acid], the Target entry in assay [1] is recorded as “NEU1”. For the same compound, the 50% inhibitory concentration (IC50) in assay [2] is over 500 µM; in assay [3], over 500 µM; in assay [4], 1.5 ± 0.2 µM.
On to `CC(=O)Nc1ccc(-c2cn(C[C@@H](O)[C@@H](O)[C@@H]3OC(C(=O)O)=C[C@H](O)[C@H]3NC(C)=O)nn2)cc1` [7b], for which the Target result in assay [1] is reported as “NEU3/ NEU4”. Moreover, the IC50 was determined as 11 ± 1 µM in assay [2], 5.5 ± 0.5 µM in assay [3] and 59 ± 5 µM in assay [4].
Turning to `CCCCC(=O)NC[C@@H](O)[C@@H](O)[C@@H]1OC(C(=O)O)=C[C@H](O)[C@H]1NC(=O)CC` [compound 65, 5-Propionamido-9-pentanamido-2,6-anhydro-3,5-dideoxy-D-glycero-D-galacto-non-2-enonic acid], the Target entry in assay [1] is “NEU1”. Further, the IC50 in assay [2] was 190 ± 70 µM; in assay [3] it was over 500 µM; in assay [4], 1.6 ± 0.2 µM.
`CC(=O)N[C@H]1[C@H]([C@H](O)[C@H](O)CNC(=O)c2cccc(N)c2)OC(C(=O)O)=C[C@@H]1O` [compound 61, 5-Acetamido-9-(3-amino)benzamido-2,6-anhydro-3,5-dideoxy-b-glycero-D-galacto-non-2-enonic acid]: the Target result in assay [1] is reported as “NEU1”. For the same compound, the IC50 in assay [2] is 150 ± 40 µM; in assay [3], 35 ± 6 µM; in assay [4], 6.5 ± 0.7 µM.
In the case of `O=C(Cn1cc(-c2ccc(C(=O)O)cc2)nn1)N[C@@H]1C(O)C=C(C(=O)O)OC1C(O)C(O)CO` (stereo partly shown) [compound 43], the Target entry in assay [1] is “NEU2”. For the same compound, the half-maximal inhibitory concentration (IC50) in assay [2] is 400 ± 160 µM; in assay [3] it was over 500 µM; in assay [4], over 500 µM.
For `CC(=O)N[C@H]1[C@H]([C@H](O)[C@H](O)Cn2cc(-c3ccc(Oc4ccccc4)cc3)nn2)OC(C(=O)O)=C[C@@H]1O` [7j], the Target result in assay [1] is recorded as “NEU3/ NEU4”. The IC50 is 0.97 ± 0.24 µM in assay [2], 1 ± 0.1 µM in assay [3] and over 500 µM in assay [4].
For `CC(=O)N[C@H]1[C@H]([C@H](O)[C@H](O)Cn2cc(-c3ccc(C(=O)O)cc3)nn2)OC(C(=O)O)=C[C@@H]1NC(=O)NCCC(=O)O` [compound 18], in assay [1], the Target result is listed as “NEU4”. In addition, the half-inhibitory concentration (IC50) in assay [2] is 66 ± 16 µM; in assay [3], over 500 µM; in assay [4], over 500 µM.
Take `CCCCCC(=O)N[C@H]1[C@H]([C@H](O)[C@H](O)CNC(=O)CCC)OC(C(=O)O)=C[C@@H]1O` [compound 70, 5-Hexanamido-9-butanamido-2,6-anhydro-3,5-dideoxy-D-glycero-D-galacto-non-2-enonic acid]: the Target entry in assay [1] is recorded as “NEU1”. Also, the results for the concentration for half-maximal inhibition (IC50) in assay [2], in assay [3] and in assay [4] were over 500 µM, over 500 µM and 1.2 ± 0.1 µM, respectively.
Take `CC(=O)N[C@H]1[C@H]([C@H](O)[C@H](O)Cn2cc(-c3ccc(C(F)(F)F)cc3)nn2)OC(C(=O)O)=C[C@@H]1O` [7g]: in assay [1], the Target result is “NEU3/ NEU4”. For the same compound, the IC50 in assay [2] turned out to be 5 ± 0.9 µM; in assay [3] it was 3.3 ± 0.5 µM; in assay [4] it was 140 ± 30 µM.
